Reference: patent publication US20090018194A1, “Use of antimicrobial agents derived from alliaceous plants for the prevention and control of crop diseases, post-harvest rot and as environmental disinifectant products” (DMC Research Center, S.L., priority 2007, published 2009)

What was measured:
Botrytis cinerea [1] = assay: post-harvest rotting of inoculated pears, drencher treatment; assay type: in vivo; conditions: 450 ppm, 15 days of refrigeration at 5-6° C.
Description: (§1) The effectiveness of the active principle PTS (in various individual doses) was studied in the control of post-harvest rotting of pears and apples caused by the fungi Botrytis cinerea and Penicillium expansum, the principal agents of diseases in these fruits. These phytopathogens can appear in fruit being stored in a cold room and, once in the processing plant and in a later phase, form colonies and are transferred from one fruit to another by contact. The study was performed by means of a controlled inoculation test to ensure a high percentage of affected fruits, and to guarantee that this level of infection is with certainty caused by these pathogens, thereby making it possible to detect and evaluate significant differences between the different treatments. […] To perform the controlled inoculation, wild strains of Botrytris cinerea and Penicillium expansum were used which were isolated in fruit and vegetable processing plants. […] After the time indicated above had passed, the various post-harvest treatments were carried out by means of […] 25° C. for 60 seconds.

Penicillium expansum [2] = assay: as above; assay type: in vivo; conditions: 450 ppm, 15 days of refrigeration at 5-6° C.
Description: as §1

Botrytis cinerea [3] = assay: post-harvest rotting of inoculated apples, drencher treatment; assay type: in vivo; conditions: 450 ppm, 15 days of refrigeration at 5-6° C.
Description: as §1

Penicillium expansum [4] = assay: as above; assay type: in vivo; conditions: 450 ppm, 15 days of refrigeration at 5-6° C.
Description: as §1

[5] = tested on: pears (Decana and Flor de Invierno varieties); assay: phytotoxicity on treated pears; conditions: 450 ppm
[6] = tested on: apples (Golden Delicious and Red Chief varieties); assay: phytotoxicity on treated apples; conditions: 450 ppm
[7] = tested on: Penicillium italicum CECT 2294; assay: agar diffusion test with impregnated cellulose discs; assay type: cell-based; conditions: incl. 6 mm disc
[8] = tested on: Geotrichum candidum CECT 1902; assay: agar diffusion test, commercial phytosanitaries; assay type: cell-based; conditions: incl. 6 mm disc
[9] = tested on: Trichoderma aureoviride CECT 20102; assay: agar diffusion test, commercial phytosanitaries; assay type: cell-based; conditions: incl. 6 mm disc
[10] = tested on: Rhizopus stolonifer ATCC 24862; assay: agar diffusion test, commercial phytosanitaries; assay type: cell-based; conditions: incl. 6 mm disc

## imazalil sulfate [reference compound]
Botrytis cinerea [1]; Decana
  % of fruit affected: 19%
Botrytis cinerea [1]; Flor de invierno
  % of fruit affected: 24%
Penicillium expansum [2]; Decana
  % of fruit affected: 4.5%
Penicillium expansum [2]; Flor de invierno
  % of fruit affected: 6.7%
Botrytis cinerea [3]; Golden Delicious
  % of fruit affected: 10%
Botrytis cinerea [3]; Red Chief
  % of fruit affected: 12%
Penicillium expansum [4]; Golden Delicious
  % of fruit affected: 4.3%
Penicillium expansum [4]; Red Chief
  % of fruit affected: 6.2%
[5]; Decana, fruit inoculated with Botrytis cinerea
  Phytotoxicity (number of damaged fruits): 0
[5]; Decana, fruit inoculated with Penicillium expansum
  Phytotoxicity (number of damaged fruits): 0
[5]; Flor de invierno, fruit inoculated with Botrytis cinerea
  Phytotoxicity (number of damaged fruits): 0
[5]; Flor de invierno, fruit inoculated with Penicillium expansum
  Phytotoxicity (number of damaged fruits): 0
[6]; Golden Delicious, fruit inoculated with Botrytis cinerea
  Phytotoxicity (number of damaged fruits): 0
[6]; Golden Delicious, fruit inoculated with Penicillium expansum
  Phytotoxicity (number of damaged fruits): 0
[6]; Red Chief, fruit inoculated with Botrytis cinerea
  Phytotoxicity (number of damaged fruits): 0
[6]; Red Chief, fruit inoculated with Penicillium expansum
  Phytotoxicity (number of damaged fruits): 0

## Oc1ccccc1-c1ccccc1 [o-pheynl phenol]
[7]; 4000 ppm active principle
  diameter of the microbial inhibition halo: 45 mm
[7]; 6000 ppm active principle
  diameter of the microbial inhibition halo: 45 mm
[8]; 4000 ppm active principle
  diameter of the microbial inhibition halo: 45 mm
[8]; 6000 ppm active principle
  diameter of the microbial inhibition halo: 47 mm
[9]; 4000 ppm active principle
  diameter of the microbial inhibition halo: 40 mm
[9]; 6000 ppm active principle
  diameter of the microbial inhibition halo: 42 mm
[10]; 4000 ppm active principle
  diameter of the microbial inhibition halo: 14 mm
[10]; 6000 ppm active principle
  diameter of the microbial inhibition halo: 15 mm

## c1ccc(-c2ccccc2)cc1 [Biphenyl]
[7]; 4000 ppm active principle
  diameter of the microbial inhibition halo: 7 mm
[7]; 6000 ppm active principle
  diameter of the microbial inhibition halo: 8 mm
[8]; 4000 ppm active principle
  diameter of the microbial inhibition halo: 0 mm
[8]; 6000 ppm active principle
  diameter of the microbial inhibition halo: 0 mm
[9]; 4000 ppm active principle
  diameter of the microbial inhibition halo: 0 mm
[9]; 6000 ppm active principle
  diameter of the microbial inhibition halo: 0 mm
[10]; 4000 ppm active principle
  diameter of the microbial inhibition halo: 0 mm
[10]; 6000 ppm active principle
  diameter of the microbial inhibition halo: 0 mm
